The text below walks through data of US6608176B2, “Taste receptor for umami (monosodium glutamate) taste” (University of Miami, priority 2000, dated 2003).

Read-outs that look alike come from different tables or passages of the source.

The target in test [1] is T1, brain-mGluR4 (Rattus norvegicus, UniProt P31423).
T1 construct: Full-length cDNAs for brain-mGluR4 and taste-mGluR4 were reconstructed; expressed in transfected cells
The test can be described thus: Suppression of forskolin-stimulated cAMP in CHO cells stably expressing brain-mGluR4. The format is cell-based. On the procedure:
(§1) CHO cells were transfected with brain-mGluR4 and taste-mGluR4 constructs and with non-recombinant pcDNA3.1 vector, all in parallel, using a cationic lipid, DMRIE-C (Gibco-BRL). Cells with stably integrated plasmid were selected and maintained in 300 μg per ml G418 starting 24 h after transfection. The medium consisted of Dulbecco's Modified Eagle Medium (D-MEM) supplemented with 10% fetal bovine serum, 2 mM glutamine, 1.7 mM proline and 100 units per ml penicillin-streptomycin^35. Clones were lifted within two weeks and screened for expression by western blot analysis. A single clone for each form was propagated for functional assays. Stably transfected but non-clonal lines of cells from independent transfections with both forms of mGluR4 and non-recombinant vector were also maintained and used in functional assays.
(§2) CHO cells, stably transfected with brain-mGluR4, taste-mGluR4 or non-recombinant pcDNA3.1, were maintained as sub-confluent cultures and refed every two days to minimize chronic stimulation of expressed receptors by glutamate released from dead cells. Cells were plated 20 h before assay in a 96-well microtiter plate at 2×10^4 cells per 200 μl well. Fresh medium was replaced for one hour immediately before assaying receptor function as described^35. Briefly, cells were incubated in Dulbecco's phosphate buffered saline containing 1 mM IBMX for 20 min followed by stimulation for 10 min in 10 μM forskolin and 1 mM IBMX, with or without agonists. Stimulation buffer was rapidly removed, and cells were lysed in 200 μl 0.25% dodecyltrimethyl-ammonium bromide in 50 mM acetate buffer (Amersham, Piscataway, N.J.). Released cAMP in 20% of each lysate was assayed directly using an Amersham EIA-based kit and plotted as mean±s.e. of 3-6 experiments, each performed with triplicate wells of cells.
(§3) In transfected CHO cells, activation of group III mGluRs leads to a suppression of forskolin-stimulated cAMP synthesis^35. […] Thus, two separate lines of CHO cells expressing taste-mGluR4 were examined.

For a further test, the target named is T2, taste-mGluR4 (Rattus norvegicus, UniProt P31423).
T2 construct: expressed in transfected cells
T2 sequence (P31423 309-912): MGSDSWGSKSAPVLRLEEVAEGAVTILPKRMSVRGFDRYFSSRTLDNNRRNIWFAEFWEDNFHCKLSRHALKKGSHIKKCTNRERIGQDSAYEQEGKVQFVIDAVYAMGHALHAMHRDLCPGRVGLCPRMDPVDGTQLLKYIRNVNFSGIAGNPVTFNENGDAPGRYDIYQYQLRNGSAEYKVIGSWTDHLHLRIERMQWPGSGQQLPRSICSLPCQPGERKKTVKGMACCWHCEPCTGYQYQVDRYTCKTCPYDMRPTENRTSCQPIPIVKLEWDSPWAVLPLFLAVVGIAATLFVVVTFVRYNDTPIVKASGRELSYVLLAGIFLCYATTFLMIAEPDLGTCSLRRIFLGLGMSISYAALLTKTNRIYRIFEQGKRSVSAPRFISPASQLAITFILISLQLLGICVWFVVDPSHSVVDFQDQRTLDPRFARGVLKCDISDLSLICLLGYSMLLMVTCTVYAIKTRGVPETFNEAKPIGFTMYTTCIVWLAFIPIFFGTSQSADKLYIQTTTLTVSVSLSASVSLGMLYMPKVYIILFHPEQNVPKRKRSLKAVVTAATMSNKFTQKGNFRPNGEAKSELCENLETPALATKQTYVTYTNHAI
The test can be described thus: Suppression of forskolin-stimulated cAMP in CHO cells stably expressing taste-mGluR4. The format is cell-based. On the procedure:
as §1, §2, §3

In test [2] the test system is CHO cells transfected with non-recombinant pcDNA3.1 vector. The test can be described thus: cAMP level in control CHO cells transfected with non-recombinant vector. As to conditions: for change of cAMP concentration in control cells: non-recombinant vector; for cAMP level relative to controls: n=9. The format is cell-based, Chinese hamster. The method, then:
as §1, §2

The target in test [3] is T1, brain-mGluR4. As to conditions: cited from earlier work.
For a further test, the system named is MSG taste detection. As to conditions: rats, behavioral assays; cited from earlier work.
A further test deals with chorda tympani nerve. The conditions noted are these: chorda tympani nerve recordings; cited from earlier work.
The test system of test [4] is glossopharyngeal nerve / sensory afferents. The conditions noted are these: cited from earlier work.

T1 sequence (P31423 33-912): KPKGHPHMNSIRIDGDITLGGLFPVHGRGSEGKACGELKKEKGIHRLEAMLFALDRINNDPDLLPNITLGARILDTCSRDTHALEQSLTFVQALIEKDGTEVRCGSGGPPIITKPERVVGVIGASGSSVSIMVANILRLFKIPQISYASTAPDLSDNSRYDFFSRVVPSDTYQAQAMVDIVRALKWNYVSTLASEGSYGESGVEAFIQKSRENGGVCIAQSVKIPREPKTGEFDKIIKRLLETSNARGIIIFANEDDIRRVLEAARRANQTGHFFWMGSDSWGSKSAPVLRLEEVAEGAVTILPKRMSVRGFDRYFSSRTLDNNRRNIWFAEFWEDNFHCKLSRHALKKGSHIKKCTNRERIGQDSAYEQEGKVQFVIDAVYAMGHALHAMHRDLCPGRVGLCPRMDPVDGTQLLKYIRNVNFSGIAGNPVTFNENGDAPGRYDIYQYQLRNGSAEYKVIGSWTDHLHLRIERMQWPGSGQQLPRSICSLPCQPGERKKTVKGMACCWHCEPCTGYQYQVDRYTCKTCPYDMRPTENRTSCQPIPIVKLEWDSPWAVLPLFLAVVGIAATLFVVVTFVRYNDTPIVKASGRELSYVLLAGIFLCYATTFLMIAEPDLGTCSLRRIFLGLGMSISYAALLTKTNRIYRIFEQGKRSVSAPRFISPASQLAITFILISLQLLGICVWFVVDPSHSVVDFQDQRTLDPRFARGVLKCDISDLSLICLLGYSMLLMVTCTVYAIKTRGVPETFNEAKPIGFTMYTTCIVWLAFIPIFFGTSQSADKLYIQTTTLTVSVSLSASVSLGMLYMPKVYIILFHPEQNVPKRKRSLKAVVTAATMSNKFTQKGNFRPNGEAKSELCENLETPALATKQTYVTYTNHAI

Take `NC(CCP(=O)(O)O)C(=O)O` [L-AP4]: the “concentration above which the cAMP response saturates” value at brain-mGluR4 [1] (brain-mGluR4 CHO cells, FIG. 4) is listed as “above 10 μM”. For the same molecule, the cAMP response result on taste-mGluR4 (10 μM L-AP4) is given as “no response”; at taste-mGluR4 (100 μM and 1 mM L-AP4) it was “progressively larger responses”. Moreover, the “change of cAMP concentration in control cells” value in test [2] is given as “did not change”. Further, the EC50 at brain-mGluR4 [3] (brain mGluR4, literature ref 35, read-out: published EC50) is 0.5 to 1 µM. The “concentration near the MSG taste detection threshold” value in the test with MSG taste detection was around 100 µM.
With `C[C@](N)(CCP(=O)(O)O)C(=O)O` [MAP4], the “block of taste nerve responses to glutamate and L-AP4” value in the test with chorda tympani nerve is recorded as “fails to block”.
In the case of `N[C@@H](CCC(=O)O)C(=O)O` [L-glutamate], the EC50 on brain-mGluR4 [1] (CHO cells stably expressing brain-mGluR4, 10 μM forskolin, 1 mM IBMX) was 2 µM; at taste-mGluR4 (CHO cells expressing taste-mGluR4, 10 μM forskolin, 1 mM IBMX, read-out: EC50 for L-glutamate for taste-mGluR4), 280 µM; at taste-mGluR4 (line with expression 2-fold lower than parallel brain-mGluR4 line, read-out: EC50, taste-mGluR4 CHO line) it was 250 µM; at taste-mGluR4 (line with expression 100-fold lower than parallel brain-mGluR4 line, read-out: EC50, taste-mGluR4 CHO line), 300 µM; at brain-mGluR4 [3] (mGluR4a, literature ref 35, read-out: EC50 on mGluR4a, earlier reports), 5 µM. For the same molecule, the “threshold concentration for activating taste-mGluR4” value at taste-mGluR4 (CHO cells expressing taste-mGluR4) was 30 µM. Moreover, the “concentration needed for taste mGluR4 relative to brain-derived neurotransmitter mGluR4” value at taste-mGluR4 (CHO cells, taste vs brain mGluR4) is “about 100 fold”. Further, the cAMP response result at taste-mGluR4 (at concentrations of 30 μM or below) is listed as “no response”. Besides, the “cAMP level relative to controls” value is given as 127±16% in test [2] (1 mM) and 132±19% in test [2] (10 mM). Also, the taste nerve threshold in test [4] (adult mice and rats) was 2 to 10 mM. The “threshold for glutamate taste responses in the glossopharyngeal nerve” value in test [4] (juvenile mice) is 100 µM.
On to `N[C@H](CCC(=O)O)C(=O)O` [D-glutamate], for which the “cAMP level relative to controls” value is reported as 126±17% on brain-mGluR4 [1] (1 MM D-glutamate, brain-mGluR4 cells) and 99±3% at taste-mGluR4 (1 MM D-glutamate, taste-mGluR4 cells). In addition, the “change of cAMP concentration in control cells” value in test [2] is on record as “did not alter cAMP concentrations”.
`N[C@@H](CCC(=O)O)C(=O)[O-].[Na+]` [L-MSG, monosodium L-glutamate]: the “detection threshold in recordings from sensory afferents” value in test [4] (adult rodents) is 1 to 3 mM; in test [4] (juvenile rodents) it was 0.1 to 0.3 mM.
